In patent US20140239525A1, “INHALABLE PHARMACEUTICAL COMPOSITIONS” (BOARD OF REGENTS, UNIVERSITY OF TEXAS SYSTEM, priority 2011, published 2014):
Like-named read-outs stand apart in the source and are kept apart here.

How the values were obtained:
IL-12 = assay: Inflammatory response: IL-12 in bronchoalveolar lavage supernatant by ELISA; format: in vivo, mice
Method: The inflammatory response to the administration of hydrophobic bioactive agents (e.g., as discussed in connection with Example 1-3 above) was measured. Surgery is performed on sacrificed mice to expose the pleural cavity and trachea at the throat. […] An aliquot (about 0.75 mL) of phosphate buffered saline is instilled through the cannula into the lungs and removed to wash the bronchial and alveolar surfaces. This process is repeated for a total of three washes. The phosphate buffered saline containing cells is placed into centrifuge vials and centrifuged at about 3000 rpm (MiniSpin Plus, Eppendorf International, Hamburg, Del.). The supernatant is removed leaving the collected cells in the pellet. The supernatant from the BAL (Bronchoalveolar Lavage) is analyzed by enzyme-linked immunosorbent assay (ELISA) for IL-12 elevation (n=2 per sample tested).

[1] = solubilized oral formulations, cited from earlier work
[2] = Particle size distribution by laser diffraction (LD); format: physicochemical
Method: Laser Diffraction (LD): Bulk CoQ10 powder was dispersed in 20% (v/v) 1,3-propanediol in deionized water for analysis of particle size distribution. This dispersed sample was then added to a small cell apparatus in a Malvern Mastersizer S® instrument (Malvern Instruments, Worcestershire, UK) equipped with a 300 mm lens until 5-10% obscuration was attained. The internal phase and dispersant refractive indexes were 1.45 and 1.33, respectively.
(§1) Particle Size Distribution: Particle size distribution testing of the dispersed formulations was performed with LD using a wet sample dispersion unit stirring at 1,000 rpm coupled to a Malvern Spraytec® (Malvern Instruments, Worcestershire, UK) equipped with a 300 mm lens. The dispersed formulations were added to distilled water (dispersant) until approximately 5% laser obscuration was attained. The internal phase and dispersant refractive indexes were set as 1.45 and 1.33, respectively. A timed measurement was performed for 45 seconds with 1 second sampling periods (a total of 45 measurements). Results are presented as Dv(X) and span, where X is the cumulative percentile of particles under the referred size (e.g. Dv(50) corresponds to the median volume of the particles). Span is a measurement of particle size distribution calculated as [Dv(90)-Dv(10)]/Dv(50)]. A higher span indicates a more polydisperse particle size distribution.
as §1, with “5%” for “5% laser”, “were” for “were set as”, “45 data acquisition periods).” for “45 measurements).”, “is the” for “is a”, “as [Dv(90)−Dv(10)]/Dv(50)].” for “as [Dv(90)-Dv(10)]/Dv(50)].”

[3] = CoQ10 in lung tissue of mice after 15 min nose-only aerosol dosing; format: in vivo
Method: (§2) Pulmonary Delivery to Mice: Animals were caged in groups of 4 and maintained on a normal rodent chow diet with free access to water. Prior to dosing, CD-1@ IGS ICR mice (Charles River Laboratories International, Inc., Wilmington, Mass., USA) were individually acclimatized for approximately 10 minutes per day for 3 days into restraint tubes, restricted by an anterior nose insert and a posterior holder. The dosing apparatus was placed inside a fume hood to collect escaping aerosol containing drug. To avoid influence from the airflow provided by the fume hood, an erlenmeyer container was placed at the end of the tubing system as a buffer. The airflow rate was set to 1 L/min to ensure proper drug aerosolization into the nose-only chamber (internal volume: 230 mL; diameter: 3.8 cm; length: 20.3 cm) using an Aeroneb Pro® vibrating-mesh nebulizer (Aerogen, Galway, Ireland). Following preparation, all formulations (saline control, DMPC, DPPC, and DSPC) were dosed for 15 minutes to mice weighing from 23 to 33 g each, at time of dosing. Each single-dose studied group consisted of thirty-six male animals. At each time point (0.5, 1, 3, 8, 24, and 48 hours after the end of the aerosolization event) six animals randomly selected from different dosing events of the same formulation were sacrificed by narcosis with carbon dioxide. As part of the collection process, blood was withdrawn by cardiac puncture, lungs were harvested, and a nasal wash was performed. The samples were extracted for analysis with liquid chromatography coupled with tandem mass spectrometry (LC/MS/MS).
Analysis of CoQ10 Levels in Lung Tissue, Blood Plasma, and Nasal Cavity: For each experiment, CoQ10 levels were determined after liquid extraction using liquid chromatography coupled with tandem mass spectrometry (LC-MS/MS). The methods were validated in the drug concentration range of 0.1 to 600 μg/mL. The general sample preparation protocols for lung tissue, blood plasma, and nasal cavity analysis are described below. […]

mice = assay: Survival and health of mice after aerosol dosing; format: in vivo; details: 48 hours after the end of the nebulization event
Method: as §2, with “As part of the collection process, blood was withdrawn by cardiac puncture, lungs were harvested, and a nasal wash was performed. The samples were extracted for analysis with liquid chromatography coupled with tandem mass spectrometry (LC/MS/MS).” left out

[4] = after ball milling for 18 hours
[5] = previous studies, same nebulizer

COC1=C(OC)C(=O)C(C/C=C(\C)CC/C=C(\C)CC/C=C(\C)CC/C=C(\C)CC/C=C(\C)CC/C=C(\C)CC/C=C(\C)CC/C=C(\C)CC/C=C(\C)CCC=C(C)C)=C(C)C1=O [CoQ10, Coenzyme Q10]
IL-12 levels in BAL supernatant (IL-12; ELISA): not associated with a rise in IL-12 levels
lung inflammation (IL-12; mouse, in vivo): does not cause lung inflammation
highest plasma concentration of CoQ10 reported in the literature ([1]; approximate conversion): approximately 9 μg/mL
highest plasma concentration of CoQ10 reported in the literature [1]: 10.7 µmol/L
Dv(50) [2, 4]: 29.87 μm
span [2, 4]: 2.282
particle size ([2]; bulk CoQ10 powder): 30 μm
Dv(50) ([2]; bulk material): 29.87 μm
span ([2]; bulk material): 2.051
time CoQ10 stays in the lungs at relatively high concentrations ([3]; mice, after 15 min aerosol): up to 48 hours
Cmax relative to dispersions of cyclosporine A [3, 5]: ≤ 75 fold
Cmax relative to dispersions of itraconazole [3, 5]: ≤ 165 fold
survival and health signs (mice): all mice were alive and presenting healthy signs
